Laboratory results published in patent US11732277B2, “Cellular production of pure iron oxide nanoparticles” (NANOBACTERIE, priority 2018, dated 2023).
Like-named read-outs stand apart in the source and are kept apart here.

Key:
[1] = system: MSR-1 magnetotactic bacteria; assay type: cell-based; conditions: for magnetic response: condition 4, individual vitamin replacing yeast extract, at D13; for Magnetic response (%): condition 4, individual vitamins, D13
Procedure: Measurement of the magnetic response of living magnetotactic bacteria using optical microscopic observations of these bacteria under the application of a magnetic field: 1 mL of a suspension of MSR-1 magnetotactic bacteria was centrifugated at 14500 rpm for 10 minutes. The growth medium was removed and replaced by a volume of PBS 0.1× to reach an OD565 nm of 0.5. 1 μL of this suspension of MSR-1 magnetotactic bacteria was deposited on a parallelipedic microscope slide (Menzel-Glaser, 24 mm×60 mm, […]) for microscopic observation using a Zeiss Primo Vert optical microscope with X40 magnification. Four small cubic Neodinium magnets of strength 1.3 T (Supermagnet, N42 W-10-N 10×10×10 mm) were positioned on the microscope's platform at a distance from the suspension of bacteria of ˜2 cm in such a way that it either generated a magnetic field parallel to the position of the observer or to the line between the two binoculars (position 1) or perpendicular to this position (position 2). 20 seconds after positioning the magnet in position 1 or 2, the percentage of bacteria aligned in the direction of the magnetic field was estimated, by considering 200 magnetotactic bacteria. The bacteria that were not aligned in the same direction as the magnetic field generated by the magnet were considered as non-magnetic. Their number is designated as nBNM. The bacteria that were aligned in the direction of the magnetic field generated by the magnet were considered as magnetic. Their number was designated as nBM. The percentage of magnetic bacteria was then given by nBM/(nBM+nBNM). A positive magnetic response of magnetotatic bacteria corresponded to nBM/(nBM+nBNM)>0.5. A negative magnetic response of magnetotatic bacteria corresponds to nBM/(nBM+nBNM)<0.5.
In some cases, the percentage of magnetic bacteria can be measured by optical observation under microscope in the presence of a magnetic field.

[2] = system: MSR-1 magnetotactic bacteria; assay type: cell-based; conditions: for Growth ratio (ODD13/ODD6) / Optical density following pre-growth (ODD6) / Optical density following growth (ODD13): condition 4, individual vitamins; for Optical density following pre-growth (ODD6) / Optical density following growth (ODD13): OD at 565 nm; for Optical density following pre-growth (ODD6): day 6; for Optical density following growth (ODD13): day 13; for OD565 nmD13/OD565 nmD6: condition 4, individual vitamin replacing yeast extract, mineral elixir CB3, 50 mL tubes
Procedure: Optical density measurements of suspensions of whole magnetotactic bacteria to assess bacterial growth: The optical density of the different suspensions of magnetotactic bacteria was measured at 565 nm, designated as OD565 nm, using a Secomam UviLine9400 spectrophotometer. The value of OD565 nm is proportional to the concentrations of bacteria in the suspensions. […]
This example describes the experimental protocol used to determine the reduced medium replacing the yeast extract that enables the growth of MSR-1 magnetotactic bacteria and the synthesis of magnetosomes by these bacteria. In this example we used non-pharmaceutical grade chemicals for the preparation of the growth media. The compositions of pre-growth and growth media, in one liter of de-ionized water, are indicated in table 2 (condition 2), table 3 (condition 3), and table 4 (condition 4). During the first day of the experiment (D1), a first step consists in collecting the tubes of 15 ml containing 5 mL of MSR-1 cellular stock tube from the freezer at −80° C., in thawing the tubes by letting them at room temperature for 10 minutes. In a hood, we collected from these tubes 100 μl comprising 5.10^6 MSR-1 magnetotactic bacteria that we have inserted in a 50 mL tube comprising 8 mL of filtered pre-growth medium of either condition 2 (table 2), condition 3 (table 3), or condition 4 (table 4). The 50 ml tubes were incubated for 6 days between D1 and D6 in an incubator at 29.5° C. under shaking conditions at 150 rpm. A second step consisted in adding an iron source to the growth media to enable the synthesis of magnetosomes by MSR-1 bacteria. After 6 days of pre-growth, at D6, the 50 ml tubes were placed in a hood. 30 ml of filtered growth medium were then added to the 50 mL tubes (condition 2, table 2, condition 3, table 3, condition 4, table 4) at D6 and the bacteria grew between D6 and D13. […] In contrast, the magnetic response is 0 for conditions Vit5X, Vit10X (condition 3) and very low for conditions CP, I, AA, P (condition 4). […]

Compound	magnetic response [1]	Magnetic response (%) [1] [%]	Growth ratio (ODD13/ODD6) [2]	Optical density following pre-growth (ODD6) [2]	Optical density following growth (ODD13) [2]	OD565 nmD13/OD565 nmD6 [2]	magnetic response ([1]; listed as thiamin HCl, HCl) [%]	OD565 nmD13/OD565 nmD6 ([2]; listed as thiamin HCl, HCl)
Nc1ccc(C(=O)O)cc1 [AA, p-Aminobenzoic acid]	very low	20	6.7	0.12	0.8	–	–	–
O=C(O)CCCC[C@@H]1SC[C@@H]2NC(=O)N[C@@H]21 [Biotin]	90%	>90	–	–	–	–	–	–
O[C@H]1[C@H](O)[C@@H](O)[C@H](O)[C@@H](O)[C@H]1O [I, Inositol]	very low	20	2.4	0.33	0.8	–	–	–
Cc1ncc(CO)c(CO)c1O.Cl [P, Pyridoxine HCl]	very low	5	2.8	0.25	0.7	–	–	–
Cc1cc2nc3c(=O)[nH]c(=O)nc-3n(C[C@H](O)[C@H](O)[C@H](O)CO)c2cc1C [Riboflavin]	90%	>90	4.8	0.19	0.92	4.8	–	–
Nc1nc2ncc(CNc3ccc(C(=O)N[C@@H](CCC(=O)O)C(=O)O)cc3)nc2c(=O)[nH]1 [folic acid, Folic acid]	90%	50	2.9	0.4	1.14	2.9	–	–
O=C(O)c1cccnc1 [nicotinic acid, Nicotinic acid]	90%	>90	2.4	0.27	0.65	2.4	–	–
Calcium pantothenate [CP]	very low	5	3.3	0.3	0.98	–	–	–
Thiamine HCl	–	>90	5.8	0.26	1.51	–	90	5.8
